Assay results published in paper PMC10136147, “Bacillus subtilis YtpP and Thioredoxin A Are New Players in the Coenzyme-A-Mediated Defense Mechanism against Cellular Stress” (Antioxidants, 2023).

Legend:
YtpP [1] = molecular target: YtpP (Bacillus subtilis, UniProt O34357, C28S); assay: anti-CoA Western blot after incubation with CoAlated protein; assay type: binding; conditions: covalent; CoA transferred from the CoAlated protein, 30 min, 37 C
TrxA = molecular target: T1, TrxA (Bacillus subtilis, UniProt P14949); assay: HPLC ([…] nm) of released CoA; anti-CoA Western blot; assay type: biochemical; conditions: CoA released from 6 uM CoA-MsrA or CoA-PRDX5 by 60 uM enzyme, 1 h, 37 C
T1 construct: about 11 kDa, N-terminal 6xHis tag (pET28a), E. coli BLR(DE3)
T1 sequence (P14949 1-104): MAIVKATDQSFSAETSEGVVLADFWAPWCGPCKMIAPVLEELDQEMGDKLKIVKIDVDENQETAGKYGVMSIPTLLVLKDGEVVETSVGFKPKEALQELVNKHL

MsrA = molecular target: T2, MsrA (Corynebacterium diphtheriae, UniProt Q6NEL2); assay: anti-CoA Western blot after in vitro CoAlation; assay type: binding; conditions: covalent mixed disulfide with cysteine; protein:CoA:H2O2 1:3:10, RT, 30 min; monomer and oligomer bands
T2 construct: 26 kDa
T2 sequence (Q6NEL2 1-220): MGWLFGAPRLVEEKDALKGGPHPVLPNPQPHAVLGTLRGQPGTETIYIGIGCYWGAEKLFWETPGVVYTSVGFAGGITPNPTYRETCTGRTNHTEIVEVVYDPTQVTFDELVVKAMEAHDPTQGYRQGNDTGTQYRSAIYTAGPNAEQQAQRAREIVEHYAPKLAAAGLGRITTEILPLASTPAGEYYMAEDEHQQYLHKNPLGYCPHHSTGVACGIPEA

GAPDH = molecular target: T3, GAPDH (Staphylococcus aureus, UniProt Q6GIL8); assay: anti-CoA ELISA and Western blot after in vitro CoAlation; assay type: binding; conditions: covalent mixed disulfide with cysteine; protein:CoA:H2O2 1:3:10, RT, 30 min; reversed by 10 mM DTT
T3 construct: gene gapA1
T3 sequence (Q6GIL8 1-336): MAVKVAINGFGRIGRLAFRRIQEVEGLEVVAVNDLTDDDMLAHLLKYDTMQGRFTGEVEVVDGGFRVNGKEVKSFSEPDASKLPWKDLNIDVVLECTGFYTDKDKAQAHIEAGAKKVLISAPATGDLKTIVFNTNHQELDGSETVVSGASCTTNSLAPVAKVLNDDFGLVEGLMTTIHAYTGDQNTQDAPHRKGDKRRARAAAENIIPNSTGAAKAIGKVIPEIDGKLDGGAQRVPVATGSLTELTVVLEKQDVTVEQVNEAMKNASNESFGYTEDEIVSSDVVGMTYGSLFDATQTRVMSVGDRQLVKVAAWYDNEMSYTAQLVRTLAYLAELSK

PRDX5 = molecular target: T4, PRDX5 (Homo sapiens, UniProt P30044); assay: anti-CoA Western blot after in vitro CoAlation; assay type: binding; conditions: covalent mixed disulfide with cysteine; protein:CoA:H2O2 1:3:10, RT, 30 min; monomer and oligomer bands
T4 sequence (P30044 54-214): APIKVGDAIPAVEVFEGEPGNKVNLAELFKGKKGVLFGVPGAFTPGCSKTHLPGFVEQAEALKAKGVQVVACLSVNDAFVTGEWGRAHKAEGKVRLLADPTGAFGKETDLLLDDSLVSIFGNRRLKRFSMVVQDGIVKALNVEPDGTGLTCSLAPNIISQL

YtpP [2] = molecular target: T5, YtpP (Bacillus subtilis, UniProt O34357); assay: HPLC ([…] nm) of released CoA; anti-CoA Western blot; assay type: biochemical; conditions: CoA released from 6 uM CoA-MsrA or CoA-PRDX5 by 60 uM enzyme, 1 h, 37 C
T5 sequence (O34357 1-107): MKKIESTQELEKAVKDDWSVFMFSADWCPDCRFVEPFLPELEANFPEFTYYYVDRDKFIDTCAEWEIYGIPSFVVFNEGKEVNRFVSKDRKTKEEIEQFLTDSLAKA

Chain of YtpP (Bacillus subtilis, UniProt O34357, C28S) (O34357 whole entry C28S): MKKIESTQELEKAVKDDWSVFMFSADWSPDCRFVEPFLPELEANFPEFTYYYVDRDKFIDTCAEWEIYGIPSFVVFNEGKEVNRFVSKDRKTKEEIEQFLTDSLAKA

## CC(C)(COP(=O)(O)OP(=O)(O)OC[C@H]1O[C@@H](n2cnc3c(N)ncnc32)[C@H](O)[C@@H]1OP(=O)(O)O)[C@@H](O)C(=O)NCCC(=O)NCCS [CoA]
YtpP [1]
  anti-CoA Western blot after incubation with CoAlated protein: “Δ” represents either CoAlated YtpP C28S or YtpP C31S, or CoAlated TrxA C29S
TrxA
  HPLC (254 nm) of released CoA; anti-CoA Western blot: Following deCoAlation of both substrates by YtpP and TrxA, CoA release was monitored.
MsrA
  anti-CoA Western blot after in vitro CoAlation: anti-CoA WB was used to confirm the CoAlation of both proteins
GAPDH
  anti-CoA ELISA and Western blot after in vitro CoAlation: high signal was recorded due to the detection of CoA on the CoAlated protein
PRDX5
  anti-CoA Western blot after in vitro CoAlation: anti-CoA WB was used to confirm the CoAlation of both proteins
YtpP [2]
  HPLC (254 nm) of released CoA; anti-CoA Western blot: Following deCoAlation of both substrates by YtpP and TrxA, CoA release was monitored.
